From the supplement of paper PMC10933113
Counter-ions that a name gives are not always drawn. ± gives the uncertainty stated by the source.

Key:
[1] = test system: KeratinoSens (HaCaT ARE-luciferase) cells; assay: efficacy of ARE luciferase induction relative to DMSO (% activity over DMSO); higher = stronger induction; conditions: exposure time: 24 h
[2] = test system: lysine peptide Ac-RFAAKAA-COOH; assay: efficacy of lysine peptide change (negative = depletion) (% activity); higher = less depletion; conditions: incubation time: 24 h
[3] = test system: cysteine peptide Ac-RFAACAA-COOH; assay: efficacy of cysteine peptide change (negative = depletion) (% activity); higher = less depletion; conditions: incubation time: 24 h
[4] = test system: cysteine peptide Ac-RFAACAA-COOH; assay: AC50 of cysteine peptide concentration-response (direction given by sign of efficacy); higher = less potent; conditions: incubation time: 24 h
THP-1 = assay: efficacy of IL-8 induction relative to DMSO (% activity); higher = stronger induction; conditions: exposure time: 18 h
[5] = test system: KeratinoSens (HaCaT ARE-luciferase) cells; assay: AC50 of Nrf2/ARE luciferase induction; higher = less potent; conditions: exposure time: 24 h
[6] = test system: KeratinoSens (HaCaT ARE-luciferase) cells; assay: cytotoxicity AC50 (CellTiter-Fluor viability); higher = less cytotoxic; conditions: exposure time: 24 h

Row | SMILES | efficacy of lysine peptide change [2] | efficacy of cysteine peptide change [3] | AC50 [4] | efficacy of ARE luciferase induction [1] | efficacy of IL-8 induction (THP-1) | AC50 of Nrf2/ARE luciferase induction [5] | cytotoxicity AC50 [6]
1 | Oc1ccc2cc(SSc3ccc4cc(O)ccc4c3)ccc2c1 [6-Hydroxy-2-naphthyl disulfide] | -144 ± 8 | -97.3 ± 8 | 0.36 ± 0.04 µM | 146 ± 38 | 52.2 ± 9.7 | – | –
2 | C=CC(=O)OCCn1c(=O)n(CCOC(=O)C=C)c(=O)n(CCOC(=O)C=C)c1=O | -0.37 ± 14 | -99.7 ± 6.5 | 7.11 ± 0.82 µM | 47.2 ± 67 | 20.8 ± 5.9 | – | 24.7 ± 9.8 µM
3 | COc1ccccc1N [2-Methoxyaniline hydrochloride] | -4.19 ± 7.3 | -74 ± 18 | 45.5 ± 10 µM | 68 ± 63 | 0 | – | –
4 | N#CCC#N [Propanedinitrile] | 8.33 ± 14 | -64.6 ± 10 | 72.9 ± 20 µM | 31.6 ± 5.9 | 0 | – | –
5 | CCN(CC)CCSC(=O)C(c1ccccc1)c1ccccc1 [Thiphenamil] | 17.2 ± 18 | -82.9 ± 1.6 | 18.7 ± 3.4 µM | 63.3 ± 29 | 8.63 ± 8 | – | –
6 | CO[C@@H]1[C@H](OC(=O)/C=C/C=C/C=C/C=C/C(=O)O)CC[C@]2(CO2)[C@H]1[C@@]1(C)O[C@@H]1CC=C(C)C [Fumagillin] | 19.2 ± 21 | -117 ± 8.1 | 23 ± 9 µM | -9.86 ± 16 | 0 | – | –
7 | C[C@]12C=CC3=C4CCC(=O)C=C4CC[C@H]3[C@@H]1CC[C@@H]2O [17beta-Trenbolone] | – | – | – | 189 ± 53 | 32.2 ± 36 | 39.1 µM | 50.9 ± 20 µM
8 | CC(COc1ccc(Oc2ccccc2)cc1)Oc1ccccn1 (stereo unspecified) [Pyriproxyfen] | -7.08 ± 11 | 8.09 ± 7 | – | 83.9 ± 13 | 4.2 ± 1.8 | 34.9 µM | –
9 | OC[P+](CO)(CO)CO [Tetrakis(hydroxymethyl)phosphonium SO4] | -40.3 ± 14 | 43.1 ± 6.6 | – | 126 ± 16 | 4.18 ± 7.2 | 29.4 µM | –
10 | Nc1ccc2ccccc2c1 [2-Naphthylamine] | -10.1 ± 12 | -65.5 ± 4.2 | 0.53 ± 0.23 µM | 111 ± 32 | 5.33 ± 9.2 | – | 70.8 µM
11 | CCN(CC)CCNc1ccc(CNC=O)c2sc3ccc(OC)cc3c(=O)c12 | – | – | – | 189 ± 110 | 3.79 ± 6.6 | 63.9 µM | 59.5 ± 26 µM
12 | C=C1C[C@@H]2[C@H](CC[C@]3(C)C(=O)CC[C@@H]23)[C@@]2(C)C=CC(=O)C=C12 [Exemestane] | 97.5 ± 6.3 | -9.57 ± 9.8 | – | 109 ± 64 | 3.01 ± 5.2 | 33 µM | –
13 | ClC1=C(Cl)C(Cl)(Cl)C(Cl)=C1Cl [Hexachlorocyclopentadiene] | -11.3 ± 2.7 | -137 ± 8.4 | 30.4 ± 13 µM | 48.2 ± 5.1 | 83.1 ± 8.1 | – | –
14 | CS/C(C)=N\OC(=O)N(C)SN(C)C(=O)O/N=C(\C)SC [Thiodicarb] | 38.2 ± 2.7 | -96.8 ± 3.2 | 0.59 ± 0.11 µM | -25.2 ± 33 | 10.8 ± 9.8 | – | –
15 | N#Cc1nc(Cl)c(Cl)c(Cl)c1Cl [3,4,5,6-Tetrachloro-2-pyridinecarbonitrile] | 43.7 ± 15 | -49.4 ± 8.4 | 66.8 ± 29 µM | 38 ± 64 | 85.9 ± 32 | – | 10 ± 3.6 µM
16 | CCOP(=S)(OCC)SC(CCl)N1C(=O)c2ccccc2C1=O (stereo unspecified) [Dialifor] | -69.5 ± 7.4 | -101 ± 9.9 | 3.87 ± 0.66 µM | 63 ± 32 | 5.64 ± 12 | – | 66.8 ± 15 µM
17 | Cc1occc1S [2-Methyl-3-furanthiol] | -108 ± 8.9 | -117 ± 12 | 10.6 ± 2.4 µM | 34.9 ± 23 | 14 ± 8.6 | – | –
18 | CCOC(=O)CC(SP(=S)(OC)OC)C(=O)OCC (stereo unspecified) [Malathion] | 38.6 ± 20 | -114 ± 8.5 | 3.05 ± 0.2 µM | 10.2 ± 27 | 1.28 ± 2.2 | – | –

More lines, main results first:

Row | efficacy of lysine peptide change [2] | efficacy of cysteine peptide change [3] | AC50 [4] | SMILES | efficacy of ARE luciferase induction [1] | efficacy of IL-8 induction (THP-1) | AC50 of Nrf2/ARE luciferase induction [5] | cytotoxicity AC50 [6]
19 | -14.7 ± 8 | -72.3 ± 21 | 4.77 ± 1.4 µM | O=C1c2cccc(O)c2C(=O)c2c(O)cccc21 [Danthron] | 15 ± 14 | 2.66 ± 9.7 | – | –
20 | -3.52 ± 14 | -77.2 ± 7.4 | 33.1 ± 20 µM | Cc1ccc(N)cc1O [5-Amino-2-methylphenol] | 59.5 ± 26 | 3.18 ± 5.5 | – | –
21 | 22 ± 20 | -10.9 ± 9.8 | – | O=c1cc(-c2ccccc2)oc2cc(O)cc(O)c12 [Chrysin] | 210 ± 48 | 13.2 ± 3.6 | 53.6 µM | –
22 | -14.3 ± 14 | -69.9 ± 28 | 2.44 ± 1.8 µM | Oc1c(Br)cc(Br)c2cccnc12 [Broxyquinoline] | -33.3 ± 3 | 55.7 ± 43 | – | 4 ± 0.46 µM
23 | 0.29 ± 19 | -26 ± 7.3 | – | Cc1ccc2c(c1[N+](=O)[O-])C(=O)c1ccccc1C2=O [2-Methyl-1-nitroanthraquinone] | 81.9 ± 8.7 | 12 ± 10 | 34.8 µM | –
24 | -12.9 ± 12 | 1.07 ± 9.6 | – | O=C(O)Cn1c(C(=O)Nc2nc(-c3ccccc3Cl)cs2)cc2ccccc21 [Lintitript] | 155 ± 87 | 8.96 ± 8.3 | 32.9 µM | –
25 | 2.29 ± 4 | -105 ± 8.9 | 31 ± 7.8 µM | Nc1cc(-c2ccncc2)c[nH]c1=O [Amrinone] | 11.6 ± 5.4 | 11.6 ± 10 | – | –
26 | 12.6 ± 12 | -95.2 ± 6.3 | 2.39 ± 0.7 µM | CCCCC1C(=O)N(c2ccccc2)N(c2ccc(O)cc2)C1=O (stereo unspecified) [Oxyphenbutazone] | 221 ± 160 | 31.1 ± 25 | – | 11.7 ± 0.79 µM
27 | 11.2 ± 11 | -110 ± 11 | 50.1 µM | NC(=O)n1c(O)c(C(=O)c2cccs2)c2cc(Cl)ccc21 [Tenidap*] | 19.7 ± 5.4 | 4.22 ± 7.3 | – | 53.4 ± 15 µM
28 | -11.9 ± 11 | -4.29 ± 3.9 | – | Nc1nnc(-c2ccc([N+](=O)[O-])o2)o1 [2-Amino-5-(5-nitro-2-furyl)-1,3,4-oxadiazole] | 45.2 ± 31 | 4.08 ± 7.1 | 26.2 µM | –
29 | -80.7 ± 18 | -75.7 ± 21 | 1.33 ± 0.83 µM | O=C1c2cccc(O)c2C(=O)c2c(O)cc(CO)cc21 [Aloe-emodin] | 35.9 ± 24 | -5.38 ± 9.3 | – | –
30 | 35.1 ± 5 | 2.67 ± 4.6 | – | CCOc1ccc2nc(S(N)(=O)=O)sc2c1 [Ethoxzolamide] | 58.7 ± 28 | 10.3 ± 4.8 | 25.3 µM | –
31 | -3.82 ± 16 | 3.66 ± 6.3 | – | Cc1ccc(O)c(-n2nc3ccccc3n2)c1 [2-(2H-Benzotriazol-2-yl)-4-methylphenol] | 95.5 ± 93 | 0 | 22.4 µM | –
32 | -107 ± 3.6 | -105 ± 11 | 4.18 ± 2.3 µM | O=C(O)c1cc(O)c2ccccc2c1O [1,4-dihydroxy-2-naphthoic acid*] | -34 ± 5.3 | 31.2 ± 8.8 | – | 13.7 ± 2.3 µM
